Usually EC50 stands for the midpoint of the concentration-response curve.

The structures appear in SMILES notation. A value given as a limit tells only on which side of the number the result lay.

For one test, the system named is human mesenchymal stem cells (hMSCs). Kind of test: chondrogenic nodule formation by hMSCs (high throughput screen). The format is cell-based.
Settings: not given
On the procedure:
The primary screening assay was based upon the development of chondrogenic nodules. Chondrocytes can grow in monolayer in vitro, but to more closely mimic their native environment in the joint, the cells are routinely cultured in non-adherent conditions such as in pellet cultures or alginate bead suspensions.
In the actual screen of a library of 22,000 structurally diverse heterocycles, 10^4 primary hMSCs were plated in 384 well plates in serum free DMEM. The cells were treated with 5 μM of each compound and incubated for 4 days. […] To facilitate high throughput imaged-based detection, the chondrogenic nodules were stained with […]. The Nile Red stained nodules were quantified on an Acumen eX3 (high content imaging device) by excitation with a 488 laser for rapid detection of the nodules.
Primary hMSCs grown in a 96 well Greiner plates (50,000/well) were incubated for 4 days in the presence of the 5 uM of each DMSO or 100 nM of PRO1. On day 4, the cells were fixed with 4% formalin for 10 minutes, washed and stained with 1 μg/ml of Rhodamine B for 2 hours at room temperature.
Regarding `CC(=O)c1ccc(NC(=O)c2ccccc2C(=O)O)cc1` [Compound N09], the “Activity (chondrogenic nodules formed in % of cells)” value is reported as “** (chondrogenic nodules formed in at least 25% but less than 50% of cells)”.

Consider `NC(=O)c1ccccc1NC(=O)c1ccccc1C(=O)O` [Compound N10], for which the “Activity (chondrogenic nodules formed in % of cells)” value was “** (chondrogenic nodules formed in at least 25% but less than 50% of cells)”.

For the compound `NC(=O)c1cccc(NC(=O)c2ccccc2C(=O)O)c1` [Compound N11], the “Activity (chondrogenic nodules formed in % of cells)” value was “** (chondrogenic nodules formed in at least 25% but less than 50% of cells)”.

Regarding `O=C(O)c1ccccc1NC(=O)c1ccccc1C(=O)O` [Compound N13], the “Activity (chondrogenic nodules formed in % of cells)” value is on record as “** (chondrogenic nodules formed in at least 25% but less than 50% of cells)”.

Consider `O=C(O)c1cccc(NC(=O)c2ccccc2C(=O)O)c1` [Compound N14], for which the “Activity (chondrogenic nodules formed in % of cells)” value is on record as “** (chondrogenic nodules formed in at least 25% but less than 50% of cells)”.

On to `NS(=O)(=O)c1cccc(NC(=O)c2ccccc2C(=O)O)c1` [Compound N17], for which the “Activity (chondrogenic nodules formed in % of cells)” value is “** (chondrogenic nodules formed in at least 25% but less than 50% of cells)”.

With `N#Cc1cccc(NC(=O)c2ccccc2C(=O)O)c1` [Compound N19], the “Activity (chondrogenic nodules formed in % of cells)” value was “*** (chondrogenic nodules formed in at least 50% but less than 75% of cells)”.

Turning to `O=C(O)c1ccccc1C(=O)Nc1ccccc1CO` [Compound N20], the “Activity (chondrogenic nodules formed in % of cells)” value was “** (chondrogenic nodules formed in at least 25% but less than 50% of cells)”.

With `CNCc1cccc(NC(=O)c2ccccc2C(=O)O)c1` [Compound N24], the “Activity (chondrogenic nodules formed in % of cells)” value is “*** (chondrogenic nodules formed in at least 50% but less than 75% of cells)”.

For the compound `O=C(O)c1ccccc1C(=O)Nc1ccc(CCO)cc1` [Compound N26], the “Activity (chondrogenic nodules formed in % of cells)” value is listed as “*** (chondrogenic nodules formed in at least 50% but less than 75% of cells)”.

As for `O=C(O)c1ccccc1C(=O)Nc1ccc(N2CCOCC2)cc1` [Compound N28], the “Activity (chondrogenic nodules formed in % of cells)” value is reported as “** (chondrogenic nodules formed in at least 25% but less than 50% of cells)”.

Consider `N#CC1CCC(NC(=O)c2ccccc2C(=O)O)CC1` (centres unmarked) [Compound N30], for which the “Activity (chondrogenic nodules formed in % of cells)” value is listed as “** (chondrogenic nodules formed in at least 25% but less than 50% of cells)”.

With `O=C(O)c1ccccc1C(=O)NC1CCC(C(=O)O)CC1` (centres unmarked) [Compound N31], the “Activity (chondrogenic nodules formed in % of cells)” value is on record as “** (chondrogenic nodules formed in at least 25% but less than 50% of cells)”.

Consider `O=C(O)c1ccccc1C(=O)NCC1CCC(C(=O)O)CC1` (centres unmarked) [Compound N33], for which the “Activity (chondrogenic nodules formed in % of cells)” value is “** (chondrogenic nodules formed in at least 25% but less than 50% of cells)”.

As to `O=C(O)c1ccccc1C(=O)Nc1ncc[nH]1` [Compound N34], the “Activity (chondrogenic nodules formed in % of cells)” value is on record as “** (chondrogenic nodules formed in at least 25% but less than 50% of cells)”.

For the compound `O=C(O)c1ccccc1C(=O)Nc1ncco1` [Compound N35], the “Activity (chondrogenic nodules formed in % of cells)” value was “** (chondrogenic nodules formed in at least 25% but less than 50% of cells)”.

`O=C(O)c1ccccc1C(=O)Nc1nc(-c2ccccc2)co1` [Compound N38]: the “Activity (chondrogenic nodules formed in % of cells)” value is “** (chondrogenic nodules formed in at least 25% but less than 50% of cells)”.

Turning to `O=C(O)c1ccccc1C(=O)Nc1nc(-c2ccccc2)cs1` [Compound N39], the “Activity (chondrogenic nodules formed in % of cells)” value is “** (chondrogenic nodules formed in at least 25% but less than 50% of cells)”.

Take `O=C(O)c1ccccc1C(=O)Nc1cncs1` [Compound N42]: the “Activity (chondrogenic nodules formed in % of cells)” value is “*** (chondrogenic nodules formed in at least 50% but less than 75% of cells)”.

For `O=C(O)c1ccccc1C(=O)Nc1cnc(-c2ccccc2)s1` [Compound N45], the “Activity (chondrogenic nodules formed in % of cells)” value was “*** (chondrogenic nodules formed in at least 50% but less than 75% of cells)”.

Turning to `O=C(O)c1ccccc1C(=O)Nc1ncccn1` [Compound N50], the “Activity (chondrogenic nodules formed in % of cells)” value is recorded as “** (chondrogenic nodules formed in at least 25% but less than 50% of cells)”.

As to `O=C(O)c1ccccc1C(=O)Nc1cnccn1` [Compound N52], the “Activity (chondrogenic nodules formed in % of cells)” value is on record as “** (chondrogenic nodules formed in at least 25% but less than 50% of cells)”.

On to `N#Cc1cccc2[nH]c(-c3ccccc3C(=O)O)nc12` [Compound R01], for which the “Activity (chondrogenic nodules formed in % of cells)” value is “** (chondrogenic nodules formed in at least 25% but less than 50% of cells)”.

Turning to `N#Cc1ccc2nc(-c3ccccc3C(=O)O)sc2c1` [Compound R06-1], the “Activity (chondrogenic nodules formed in % of cells)” value is listed as “** (chondrogenic nodules formed in at least 25% but less than 50% of cells)”.

For `N#Cc1ccc(S(=O)(=O)Nc2ccccc2C(=O)O)cc1` [Compound R07], the “Activity (chondrogenic nodules formed in % of cells)” value was “** (chondrogenic nodules formed in at least 25% but less than 50% of cells)”.

Turning to `N#Cc1ccc(NC(=O)Nc2ccccc2C(=O)O)cc1` [Compound R10], the “Activity (chondrogenic nodules formed in % of cells)” value is listed as “** (chondrogenic nodules formed in at least 25% but less than 50% of cells)”.

As for `O=C(O)c1ccccc1CNC(=O)c1ccccc1C(=O)O` [MS01], the “Activity (chondrogenic nodules formed in % of cells)” value is recorded as “*** (chondrogenic nodules formed in at least 50% but less than 75% of cells)”.

For `O=C(O)c1cccc(CNC(=O)c2ccccc2C(=O)O)c1` [MS02], the “Activity (chondrogenic nodules formed in % of cells)” value was “** (chondrogenic nodules formed in at least 25% but less than 50% of cells)”.

As to `N#Cc1ccccc1CNC(=O)c1ccccc1C(=O)O` [MS04], the “Activity (chondrogenic nodules formed in % of cells)” value was “** (chondrogenic nodules formed in at least 25% but less than 50% of cells)”.

With `N#Cc1ccc(CNC(=O)c2ccccc2C(=O)O)cc1` [MS06], the “Activity (chondrogenic nodules formed in % of cells)” value was “** (chondrogenic nodules formed in at least 25% but less than 50% of cells)”.

Take `N#Cc1ccc(C(=O)NCc2ccccc2C(=O)O)cc1` [MS11]: the “Activity (chondrogenic nodules formed in % of cells)” value was “** (chondrogenic nodules formed in at least 25% but less than 50% of cells)”.

As to `O=C(Cc1ccc(C(=O)O)cc1)Nc1ccccc1C(=O)O` [MS14], the “Activity (chondrogenic nodules formed in % of cells)” value was “** (chondrogenic nodules formed in at least 25% but less than 50% of cells)”.

Regarding `N#Cc1ccc(/C=C/C(=O)c2ccccc2C(=O)O)cc1` [MS15, 2-[(2E)-3-(4-cyanophenyl)prop-2-enoyl]benzoic acid], the “Activity (chondrogenic nodules formed in % of cells)” value was “*** (chondrogenic nodules formed in at least 50% but less than 75% of cells)”.

In the case of `O=C(O)c1ccc(/C=C/C(=O)c2ccccc2C(=O)O)cc1` [MS16], the “Activity (chondrogenic nodules formed in % of cells)” value is “** (chondrogenic nodules formed in at least 25% but less than 50% of cells)”.

As for `N#Cc1ccc(C(=O)CC2OC(=O)c3ccccc32)cc1` (centres unmarked) [MS17-1], the “Activity (chondrogenic nodules formed in % of cells)” value was “*** (chondrogenic nodules formed in at least 50% but less than 75% of cells)”.

With `O=C(O)c1ccc(C(=O)CC2OC(=O)c3ccccc32)cc1` (centres unmarked) [MS18-1], the “Activity (chondrogenic nodules formed in % of cells)” value is “** (chondrogenic nodules formed in at least 25% but less than 50% of cells)”.

For the compound `N#Cc1ccc(-c2c[nH]c3c(C(=O)O)cccc23)cc1` [MS21], the “Activity (chondrogenic nodules formed in % of cells)” value was “*** (chondrogenic nodules formed in at least 50% but less than 75% of cells)”.

In the case of `N#Cc1ccc(N2Cc3ccccc3C2=O)cc1` [MS26], the “Activity (chondrogenic nodules formed in % of cells)” value was “** (chondrogenic nodules formed in at least 25% but less than 50% of cells)”.

Regarding `N#Cc1ccc(N2C(=O)c3ccccc3C2=O)cc1` [MS28], the “Activity (chondrogenic nodules formed in % of cells)” value is given as “** (chondrogenic nodules formed in at least 25% but less than 50% of cells)”.

Regarding `O=C(O)c1ccc(N2C(=O)c3ccccc3C2=O)cc1` [MS29], the “Activity (chondrogenic nodules formed in % of cells)” value is recorded as “*** (chondrogenic nodules formed in at least 50% but less than 75% of cells)”.

Consider `O=C(O)c1ccc2c(c1)C(=O)N(Cc1ccccc1C(=O)O)C2=O` [MS39], for which the “Activity (chondrogenic nodules formed in % of cells)” value was “*** (chondrogenic nodules formed in at least 50% but less than 75% of cells)”.

Turning to `O=C(NO)c1ccc(NC(=O)c2ccccc2C(=O)O)cc1` [PA02], the “Activity (chondrogenic nodules formed in % of cells)” value is reported as “** (chondrogenic nodules formed in at least 25% but less than 50% of cells)”.

`O=C(O)c1ccccc1C(=O)Nc1ccc(-c2nn[nH]n2)cc1` [PA06]: the “Activity (chondrogenic nodules formed in % of cells)” value is “*** (chondrogenic nodules formed in at least 50% but less than 75% of cells)”.

`O=C(O)c1ccccc1C(=O)Nc1ccc(S(=O)(=O)O)cc1` [PA07]: the “Activity (chondrogenic nodules formed in % of cells)” value was “*** (chondrogenic nodules formed in at least 50% but less than 75% of cells)”.

On to `O=C(O)c1ccccc1C(=O)Nc1ccc(P(=O)(O)O)cc1` [PA08], for which the “Activity (chondrogenic nodules formed in % of cells)” value is listed as “** (chondrogenic nodules formed in at least 25% but less than 50% of cells)”.

`O=C(O)c1ccccc1C(=O)Nc1ccc(COc2ccccc2)cc1` [PM02]: the “Activity (chondrogenic nodules formed in % of cells)” value is “** (chondrogenic nodules formed in at least 25% but less than 50% of cells)”.

`O=C(O)c1ccccc1C(=O)Nc1ccc(-c2ccccn2)cc1` [PM05]: the “Activity (chondrogenic nodules formed in % of cells)” value is listed as “** (chondrogenic nodules formed in at least 25% but less than 50% of cells)”.

Take `NC(=O)NCc1ccc(NC(=O)c2ccccc2C(=O)O)cc1` [PM10]: the “Activity (chondrogenic nodules formed in % of cells)” value was “** (chondrogenic nodules formed in at least 25% but less than 50% of cells)”.

Staying with this test, now noted: Homo sapiens, Mesenchymal stem cells; first value of the cell (before the slash); read-out: CHONDROGENIC μM EC50.
As for `N#Cc1ccccc1NC(=O)c1ccccc1C(=O)O` [LK13b], the concentration for a half-maximal effect (EC50) is over 10 µM.

On to `O=C(O)c1ccccc1C(=O)Nc1nnc(-c2ccccc2)s1` [LK57, 2-((5-phenyl-1,3,4-thiadiazol-2-yl)carbamoyl)benzoic acid], for which the EC50 is over 10 µM.

(Values after patent US10166237B2, “Compounds and methods for inducing chondrogenesis” (The Scripps Research Institute, priority 2011, dated 2019).)
